For data set [1] the following is noted: at 25° C.; cited from earlier work.
Data set [2] deals with subjects with an aneurysmal subarachnoid hemorrhage (aSAH). Put plainly: NEWTON Phase 1/2 study, efficacy and safety. It counts as in vivo, human. From the text:
NEWTON (Nimodipine microparticles to Enhance recovery While reducing TOxicity after subarachNoid hemorrhage) was a multicenter, randomized, controlled, open-label Phase 1/2 study evaluating the safety, tolerability and pharmacokinetics of escalating doses of a polymeric nimodipine microparticle suspended in a diluent of hyaluronic acid (EG-1962) compared to the current standard of care, oral nimodipine, in subjects with an aneurysmal subarachnoid hemorrhage (aSAH).
Fifty-four patients were randomized to receive EG-1962 and 18 patients were randomized to receive oral nimodipine.
The primary endpoint was to establish the maximum tolerated dose, which has been determined to be 800 mg. […] The secondary endpoint of characterizing the pharmacokinetics of EG-1962 was also met. The steady-state plasma concentration measured in patients treated with EG-1962 was below 30 ng/ml, the level of plasma concentration observed to cause systemic hypotension.

The structures appear in SMILES notation.

With `COCCOC(=O)C1=C(C)NC(C)=C(C(=O)OC(C)C)C1c1cccc([N+](=O)[O-])c1` (racemic) [Mod I, Nimodipine], in data set [1], the solubility in water is listed as 0.036±0.007 mg 100 mL^−1.
In the case of `COCCOC(=O)C1=C(C)NC(C)=C(C(=O)OC(C)C)C1c1cccc([N+](=O)[O-])c1` (stereo not shown) [Mod II, Nimodipine], the solubility in water in data set [1] is 0.018±0.004 mg 100 mL^−1.
As for `COCCOC(=O)C1=C(C)NC(C)=C(C(=O)OC(C)C)C1c1cccc([N+](=O)[O-])c1` (stereo not shown) [nimodipine, isopropyl(2-methoxyethyl)-1,4-dihydro-2,6-dimethyl-4-(3-nitrophenyl)-3,5-pyridinedicarboxylate], the “patients who achieved a favorable outcome (scores of 6-8, Extended Glasgow Outcome Score [GOSE])” value in data set [2] (at 90 days, pooled efficacy results) is on record as 28%. Further, in data set [2] (human, in vivo), the “patients who experienced drug-related hypotension” value was found to be 17%.

Source of the values: US20180098977A1, “SCALABLE MICROPARTICULATE FORMULATIONS CONTAINING POLYMORPHIC NIMODIPINE FORM 2 PREPARED BY A SOLVENT EVAPORATION PROCESS” (Edge Therapeutics, Inc., priority 2016, published 2018).
